The target in one data set is T1, CYP2C9 (Homo sapiens, UniProt P11712).
T1 construct: enzyme, pooled human hepatic microsome 0.2 mg protein/mL; from tissue; host or cells: pooled human liver microsomes
The experiment in a line: Test Example 6: CYP inhibition test, tolbutamide methyl-hydroxylation (CYP2C9). It counts as in vitro ADME. As to conditions: pooled human hepatic microsome, 100 μmol/L tolbutamide. The procedure:
(§1) Test Example 6 CYP Inhibition Test […] The reaction conditions were as follows: substrate, 0.5 μmol/L ethoxyresorufin (CYP1A2), 100 μmol/L tolbutamide (CYP2C9), 50 μmol/L S-mephenytoin (CYP2C19), 5 μmol/L dextromethorphan (CYP2D6), 1 μmol/L terfenedine (CYP3A4); reaction time, 15 minutes; reaction temperature, 37° C.; enzyme, pooled human hepatic microsome 0.2 mg protein/mL; concentration of the compound of the present invention, 1, 5, 10, 20 μmol/L (four points). Each five kinds of substrates, human hepatic microsome, and the compound of the present invention in 50 mmol/L Hepes buffer as a reaction solution were added to a 96-well plate at the composition as described above. NADPH, as a cofactor was added to initiate metabolism reactions as markers and, after the incubation at 37° C. for 15 minutes, a methanol/acetonitrile=1/1 (v/v) solution was added to stop the reaction. After the centrifugation at 3000 rpm for 15 minutes, resorufin (CYP1A2 metabolite) in the supernatant was quantified by a fluorescent multilabel counter and toltributamide hydroxide (CYP2[…] metabolite), mephenytoin 4' hydroxide (CYP2C19 metabolite), […], and terfenadine alcohol (CYP3A4 metabolite) were quantified by LC/MS/MS. Addition of only DMSO being a solvent dissolving the compound of the present invention to a reaction system was adopted as a control (100%). Remaining activity (%) was calculated at each concentration of the compound of the present invention added as the solution and IC50 was calculated by reverse presumption by a logistic model using a concentration and an inhibition rate.

Another data set has as its target T2, CYP2C19 (Homo sapiens, UniProt P33261).
T2 construct: enzyme, pooled human hepatic microsome 0.2 mg protein/mL; from tissue; host or cells: pooled human liver microsomes
The experiment in a line: Test Example 6: CYP inhibition test, mephenytoin 4′-hydroxylation (CYP2C19). As to conditions: pooled human hepatic microsome, 50 μmol/L S-mephenytoin. Format: in vitro ADME. The method, then: as §1

The target in the next data set is T3, CYP3A4 (Homo sapiens, UniProt P08684).
T3 construct: enzyme, pooled human hepatic microsome 0.2 mg protein/mL; from tissue; host or cells: pooled human liver microsomes
T3 sequence (P08684 whole entry): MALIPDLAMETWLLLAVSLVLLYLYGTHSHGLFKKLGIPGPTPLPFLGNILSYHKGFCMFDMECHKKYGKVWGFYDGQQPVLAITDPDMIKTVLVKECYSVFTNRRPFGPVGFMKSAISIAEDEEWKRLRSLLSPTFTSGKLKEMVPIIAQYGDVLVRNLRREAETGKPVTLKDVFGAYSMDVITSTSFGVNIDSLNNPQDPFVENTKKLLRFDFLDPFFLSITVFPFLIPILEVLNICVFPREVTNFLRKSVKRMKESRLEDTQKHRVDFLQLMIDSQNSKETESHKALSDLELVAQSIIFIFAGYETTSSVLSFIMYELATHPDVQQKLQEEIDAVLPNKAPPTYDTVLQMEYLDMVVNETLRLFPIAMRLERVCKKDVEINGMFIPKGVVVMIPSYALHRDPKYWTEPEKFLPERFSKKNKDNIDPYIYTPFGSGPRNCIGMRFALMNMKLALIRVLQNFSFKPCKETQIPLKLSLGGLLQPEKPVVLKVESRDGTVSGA
The experiment in a line: Test Example 6: CYP inhibition test, terfenedine hydroxylation (CYP3A4). Format: in vitro ADME. As to conditions: pooled human hepatic microsome, 1 μmol/L terfenedine. The procedure: as §1

The next data set addresses T4, CYP1A2 (Homo sapiens, UniProt P05177).
T4 construct: enzyme, pooled human hepatic microsome 0.2 mg protein/mL; from tissue; host or cells: pooled human liver microsomes
T4 sequence (P05177 1-516): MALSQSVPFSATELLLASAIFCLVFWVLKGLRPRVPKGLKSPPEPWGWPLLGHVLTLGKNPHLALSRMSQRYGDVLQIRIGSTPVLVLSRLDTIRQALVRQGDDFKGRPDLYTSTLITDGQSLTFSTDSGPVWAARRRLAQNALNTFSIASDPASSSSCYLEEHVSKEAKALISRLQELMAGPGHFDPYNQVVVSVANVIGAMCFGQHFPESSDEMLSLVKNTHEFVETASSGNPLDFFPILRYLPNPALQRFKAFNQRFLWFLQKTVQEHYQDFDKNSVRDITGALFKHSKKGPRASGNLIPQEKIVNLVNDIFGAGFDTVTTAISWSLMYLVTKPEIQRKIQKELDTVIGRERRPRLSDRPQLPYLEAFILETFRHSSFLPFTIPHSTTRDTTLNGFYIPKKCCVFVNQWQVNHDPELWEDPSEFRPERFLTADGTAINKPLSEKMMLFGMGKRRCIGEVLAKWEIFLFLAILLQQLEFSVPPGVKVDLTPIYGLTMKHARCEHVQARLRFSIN
The experiment in a line: Test Example 6: CYP inhibition test, 7-ethoxyresorufin O-deethylation (CYP1A2). It counts as in vitro ADME. The conditions noted are these: pooled human hepatic microsome, 0.5 μmol/L ethoxyresorufin. The method, then: as §1

Another data set addresses T5, hERG (IKr) (Homo sapiens, UniProt Q12809).
T5 construct: expressed in transfected cells; host or cells: HEK293
The experiment in a line: Test Example 10: hERG test (IKr, whole cell patch clamp). Format: cell-based. As to conditions: HEK293 cells expressing hERG channel, pH 7.4, 1 μmol/L of the compound, read-out: hERG % inhibition of tail peak current (IKr). The source says:
For the purpose of assessing risk of an electrocardiogram QT interval prolongation of a compound of the present invention, effects of the compound of the present invention on delayed rectifier K^+ current (IKr), which plays an important role in the ventricular repolarization process, was studied using HEK293 cells expressing human ether-a-go-go related gene (hERG) channel.
After a cell was retained at a membrane potential of −80 mV by whole cell patch clamp method using an automated patch clamp system (PatchXpress 7000A, Axon Instruments Inc.), IKr induced by depolarization pulse stimulation at +40 mV for 2 seconds and, further, repolarization pulse stimulation at −50 mV for 2 seconds was recorded. […] From the recording IKr, an absolute value of the tail peak current was measured based on the current value at the resting membrane potential using an analysis software (DataXpress ver. 1, Molecular Devices Corporation). Further, the % inhibition relative to the tail peak current before application of the compound of the present invention was calculated, and compared with the vehicle-applied group (0.1% dimethyl sulfoxide solution) to assess influence of the compound of the present invention on IKr. […]
(The hERG channel carries a current that helps repolarise heart muscle cells.)

Data set [1] deals with T6, human TRPV4 (hTRPV4/CHO cells) (Homo sapiens, UniProt Q9HBA0).
T6 construct: expressed in transfected cells; host or cells: CHO-K1
T6 sequence (Q9HBA0 whole entry): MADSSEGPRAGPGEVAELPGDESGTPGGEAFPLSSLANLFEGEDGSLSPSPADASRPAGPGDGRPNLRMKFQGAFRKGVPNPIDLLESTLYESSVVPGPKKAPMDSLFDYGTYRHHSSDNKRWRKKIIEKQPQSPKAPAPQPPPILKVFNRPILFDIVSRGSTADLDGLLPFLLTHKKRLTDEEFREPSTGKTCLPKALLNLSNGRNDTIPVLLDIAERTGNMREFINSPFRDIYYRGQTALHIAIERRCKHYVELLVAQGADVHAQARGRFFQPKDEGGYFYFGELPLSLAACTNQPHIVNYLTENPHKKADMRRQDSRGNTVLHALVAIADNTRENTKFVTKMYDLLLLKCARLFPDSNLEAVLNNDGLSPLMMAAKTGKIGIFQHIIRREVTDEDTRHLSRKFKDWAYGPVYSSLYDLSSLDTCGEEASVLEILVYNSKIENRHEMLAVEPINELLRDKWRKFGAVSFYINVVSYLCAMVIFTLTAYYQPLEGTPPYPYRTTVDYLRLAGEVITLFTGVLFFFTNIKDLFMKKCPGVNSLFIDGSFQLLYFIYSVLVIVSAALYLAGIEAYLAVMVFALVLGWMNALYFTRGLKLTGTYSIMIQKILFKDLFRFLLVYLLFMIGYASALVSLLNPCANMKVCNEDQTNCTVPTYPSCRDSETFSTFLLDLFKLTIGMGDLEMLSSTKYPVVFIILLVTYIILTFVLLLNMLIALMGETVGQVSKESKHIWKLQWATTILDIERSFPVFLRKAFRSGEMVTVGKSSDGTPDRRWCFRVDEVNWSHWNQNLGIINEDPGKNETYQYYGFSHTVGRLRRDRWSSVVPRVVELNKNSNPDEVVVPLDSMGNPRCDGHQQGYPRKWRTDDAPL
The experiment in a line: Test Example 1: TRPV4 inhibitory activity (IC50 value), 4α-PDD stimulation, Fluo4 calcium fluorescence (FLIPR TETRA). It counts as cell-based. The conditions noted are these: Test Example 1, 4α-PDD stimulation, read-out: Test 1 IC50.

Usually IC50 stands for the concentration that gives 50% inhibition. For orientation: inhibition means the drop in the measured response relative to a control, in per cent.

T1 sequence (P11712 whole entry): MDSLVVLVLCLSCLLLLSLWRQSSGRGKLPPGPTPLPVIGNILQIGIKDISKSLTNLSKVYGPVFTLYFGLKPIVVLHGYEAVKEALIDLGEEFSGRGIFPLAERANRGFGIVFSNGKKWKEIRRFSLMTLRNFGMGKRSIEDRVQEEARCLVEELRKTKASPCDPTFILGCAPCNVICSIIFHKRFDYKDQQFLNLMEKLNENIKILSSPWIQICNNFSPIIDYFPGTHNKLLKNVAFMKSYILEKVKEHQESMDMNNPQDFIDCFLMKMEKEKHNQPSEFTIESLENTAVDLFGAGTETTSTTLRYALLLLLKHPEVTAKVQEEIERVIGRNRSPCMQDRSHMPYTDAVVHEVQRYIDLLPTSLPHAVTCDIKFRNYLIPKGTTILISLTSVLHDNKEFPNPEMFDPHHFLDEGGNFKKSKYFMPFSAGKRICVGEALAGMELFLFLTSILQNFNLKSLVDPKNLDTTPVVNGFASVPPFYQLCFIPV
T5 sequence (Q12809 whole entry): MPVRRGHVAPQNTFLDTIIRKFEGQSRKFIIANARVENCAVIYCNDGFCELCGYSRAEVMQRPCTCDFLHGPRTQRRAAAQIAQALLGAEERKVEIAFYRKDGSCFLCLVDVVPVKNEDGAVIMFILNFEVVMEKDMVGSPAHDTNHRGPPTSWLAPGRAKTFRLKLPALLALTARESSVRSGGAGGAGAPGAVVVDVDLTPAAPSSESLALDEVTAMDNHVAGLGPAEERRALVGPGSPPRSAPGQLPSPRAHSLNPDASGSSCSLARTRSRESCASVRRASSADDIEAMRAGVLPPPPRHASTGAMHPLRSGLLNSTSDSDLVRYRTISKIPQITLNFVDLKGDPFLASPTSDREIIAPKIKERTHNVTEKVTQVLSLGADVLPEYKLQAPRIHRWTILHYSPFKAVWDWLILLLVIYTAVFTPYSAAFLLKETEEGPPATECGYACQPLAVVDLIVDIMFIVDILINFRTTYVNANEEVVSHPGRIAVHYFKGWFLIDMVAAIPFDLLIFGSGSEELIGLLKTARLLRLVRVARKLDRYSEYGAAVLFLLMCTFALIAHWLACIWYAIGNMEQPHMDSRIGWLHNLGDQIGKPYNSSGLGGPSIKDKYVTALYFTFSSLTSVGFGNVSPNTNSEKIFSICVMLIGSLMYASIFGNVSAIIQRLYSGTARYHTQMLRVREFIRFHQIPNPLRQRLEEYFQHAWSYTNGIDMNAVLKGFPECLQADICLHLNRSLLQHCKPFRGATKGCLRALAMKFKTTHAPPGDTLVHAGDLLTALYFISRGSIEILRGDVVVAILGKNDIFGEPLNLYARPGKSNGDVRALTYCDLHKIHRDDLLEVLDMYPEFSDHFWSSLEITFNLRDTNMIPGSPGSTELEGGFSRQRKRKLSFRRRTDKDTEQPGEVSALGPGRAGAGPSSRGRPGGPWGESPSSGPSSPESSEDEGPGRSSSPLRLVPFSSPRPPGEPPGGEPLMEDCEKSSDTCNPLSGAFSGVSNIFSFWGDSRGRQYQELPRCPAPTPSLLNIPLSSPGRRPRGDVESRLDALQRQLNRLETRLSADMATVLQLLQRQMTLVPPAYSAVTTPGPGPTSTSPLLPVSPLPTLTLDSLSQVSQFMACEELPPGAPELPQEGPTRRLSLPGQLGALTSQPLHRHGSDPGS
T2 sequence (P33261 whole entry): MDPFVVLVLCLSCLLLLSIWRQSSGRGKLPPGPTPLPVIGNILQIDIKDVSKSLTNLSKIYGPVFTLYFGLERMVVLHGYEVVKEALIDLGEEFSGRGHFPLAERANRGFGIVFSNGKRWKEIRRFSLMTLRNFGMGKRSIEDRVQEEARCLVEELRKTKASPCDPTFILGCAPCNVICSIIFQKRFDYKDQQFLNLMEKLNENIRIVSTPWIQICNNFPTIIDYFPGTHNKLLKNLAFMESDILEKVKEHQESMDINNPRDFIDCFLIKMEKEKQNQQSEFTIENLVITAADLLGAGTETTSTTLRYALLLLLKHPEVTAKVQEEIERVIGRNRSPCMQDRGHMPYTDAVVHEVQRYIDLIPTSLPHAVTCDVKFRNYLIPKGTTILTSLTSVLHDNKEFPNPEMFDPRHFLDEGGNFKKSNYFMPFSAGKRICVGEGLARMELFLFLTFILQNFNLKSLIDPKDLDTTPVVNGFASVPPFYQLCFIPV

For `Cc1nc(C)c(-c2csc(NC(=O)Cc3ccc(S(C)(=O)=O)cc3)n2)s1` [Compound I-17], the IC50 at CYP2C9, against CYP2C19, against CYP3A4 and against CYP1A2 was greater than 20 µM in each case.

On to `Cc1nc(C)c(-c2csc(NC(=O)C3CCC(F)(F)C3)n2)s1` (stereo not drawn) [Compound I-18], for which the inhibition at 10 min, 1 μmol/L at hERG (IKr) was 6.1%. Further, in data set [1], the IC50 lay within 0.1 to 1 µM.
